Test results: patent publication US20100324081A1, “PREVENTIVE, INHIBITOR OR REMEDY FOR CEREBRAL ANEURYSM COMPRISING IBUDILAST AS AN ACTIVE INGREDIENT” (Kyorin Pharmaceutical Co., Ltd., priority 2007, published 2010)

How the values were obtained:
[1] = system: rat cerebral aneurysm model; experiment: Cerebral aneurysm formation-inhibitory effect on rat cerebral aneurysm model (vascular corrosion cast staging); assay type: in vivo, Sprague-Dawley rats; settings: for Analysis χ^2 Test (P vs control group) / Number of cases at Stage 1 (irregularity of vascular endothelia at the branched portion) / Number of cases at Stage 2 (slight outward projection) / Number of cases at Stage 0 (no irregularity, no outward projection): 12 weeks, 15 cases
Experimental: Cerebral aneurysm models of rats were prepared, Ibudilast was administered to these animals at a dose of […] through the oral route.
In this experiment, 7-week-old Sprague-Dawley rats were used and the posterior nenal arteries at both sides of test animal were ligated and the right side common carotid artery of each test animal was likewise ligated (the preparation of a cerebral aneurysm model of rat: see Non-Patent Document 7 specified above). After one week from the foregoing treatments, the administration of a 1% physiological saline was initiated. Then, the ovaries of each test animal on the both sides were excised after 4 weeks from the initial operation. Starting from the day subsequent to the excision, a 5% gum Arabic solution (control group) and Ibudilast were orally administered to these test animals through the use of an oral probe (sound).
The numbers of cases examined herein were as follows:
Control Group (the animal group administered at a dose of 0 mg/kg/day): 20 cases;
Ibudilast (30 mg/kg/day)-Administered Group: 15 cases; and
Ibudilast (60 mg/kg/day)-Administered Group: 15 cases.
After 12 weeks from the initiation of the administration, the rats were sacrificed, and a resin (curable resin: Baston No. 17 Plastic (manufactured and sold by Polyscience Inc.)) was injected into the blood vessels of the animals to thus form a vascular corrosion cast. Then, each branched portion of the left anterior cerebral artery-olfactory artery present in the vascular corrosion cast was examined using an electron microscope. The evaluation of the results obtained was carried out under the blind conditions to thus estimate the progress of the formation of any cerebral aneurysm according to the following criteria:
Evaluation Criteria of Vascular Corrosion Cast:
Stage 0: There was not observed any […] irregularity and any outward projection;
Stage 1: There was observed irregularity of vascular endothelia at the branched portion;
Stage 2: There was observed a slight and outward projection; and
Stage 3: There was observed a substantial and outward projection or a projection which reaches even to the apex of the branched portion.

[2] = system: female rat animal model used for generating cerebral aneurysm; settings: hormone substitution therapy, estrogen-deficient female rat model; Non-Patent Document 7; cited from earlier work

## CC(C)C(=O)c1c(C(C)C)nn2ccccc12 [Ibudilast]
[1]; Ibudilast 30 mg/kg/day oral
  Analysis χ^2 Test (P vs control group): P < 0.005
  Number of cases at Stage 1 (irregularity of vascular endothelia at the branched portion): 7
  Number of cases at Stage 2 (slight outward projection): 3
[1]; Ibudilast 30 mg/kg/day oral, vascular corrosion cast, left anterior cerebral artery-olfactory artery branch
  Number of cases at Stage 0 (no irregularity, no outward projection): 4
[1]; Ibudilast 60 mg/kg/day oral
  Analysis χ^2 Test (P vs control group): P < 0.005
  Number of cases at Stage 0 (no irregularity, no outward projection): 4
  Number of cases at Stage 1 (irregularity of vascular endothelia at the branched portion): 6
  Number of cases at Stage 2 (slight outward projection): 5
[1]; cerebral aneurysm model of rat, oral administration
  Effect on cerebral aneurysm formation (overall, in words): excellent effect of cerebral aneurysm formation-preventive or suppression

## C[C@]12CC[C@@H]3c4ccc(O)cc4CC[C@H]3[C@@H]1CC[C@@H]2O [17β-estradiol]
[2]
  Effect on cerebral aneurysm formation (in words): the formation of any cerebral aneurysm is suppressed
